Assays:
[1] = test system: PMA-differentiated THP-1 cells; experiment: hTHP-1 assay containing 10% fetal bovine serum (IL-1β production, Tables B5 and B6); type: cell-based, human
How it was run: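 IL-1β release from PMA-differentiated THP-1 macrophage-like cells was triggered by 5 μM gramicidin for 2 h after 1 h compound exposure, then measured by HTRF.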

[2] = test system: PMA-differentiated THP-1 cells; experiment: IL-1β production in PMA-differentiated THP-1 cells stimulated with gramicidin (hTHP-1 assay containing 2% fetal bovine serum; Procedures 1 and 2); type: cell-based, human
How it was run: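 Compound titrations in 0.37% final DMSO were added to THP-1 cells that had been plated after 16-18 h PMA treatment, 50,000 per well in 2% FBS. One hour later the cells received gramicidin (5 μM, 2 h) and were centrifuged. HTRF detected IL-1β in the collected supernatants.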

[3] = Homo sapiens, THP-1, read-out: hTHP-1 IC50 in 10% FBS, hTHP-1 assay containing 10% fetal bovine serum, Table B5
[4] = Homo sapiens, THP-1, read-out: hTHP-1 IC50 in 2% FBS, hTHP-1 assay containing 2% fetal bovine serum, Table B5

Q: What does the source list for CCn1cc(F)c(S(N)(=O)=NC(=O)Nc2c(C)c(C(F)(F)F)nc3c2C(C)CC3)n1 (single isomer, unassigned) [Compound 1100d, (S, S) or (S, R)-N′-((3,5-dimethyl-2-(trifluoromethyl)-6,7-dihydro-5H-cyclopenta[b]pyridin-4-yl)carbamoyl)-1-ethyl-4-fluoro-1H-pyrazole-3-sulfonimidamide]?
A: IC50 ([1]; Homo sapiens, THP-1, read-out: hTHP-1 IC50 in 10% FBS, 10% fetal bovine serum, Table B5, value printed as a bound, not a class symbol): > 30000 nM; IC50 ([2]; Homo sapiens, THP-1, read-out: hTHP-1 IC50 in 2% FBS, 2% fetal bovine serum, Table B5, value printed as a bound, not a class symbol): > 30000 nM

Q: CCn1cc(F)c(S(N)(=O)=NC(=O)Nc2c(C)c(C(F)(F)F)nc3c2CC(C)C3)n1 (single isomer, unassigned) [Compound 1101b, (S, R) or (S, S)-N′-((3,6-dimethyl-2-(trifluoromethyl)-6,7-dihydro-5H-cyclopenta[b]pyridin-4-yl)carbamoyl)-1-ethyl-4-fluoro-1H-pyrazole-3-sulfonimidamide] was tested. Which IC50 ([1]; read-out: hTHP-1 IC50 in 10% FBS, hTHP-1 assay containing 10% fetal bovine serum, Table B5, listed as 822) did it give?
A: The IC50 was 1000 to 5000 nM.

Q: And the IC50 ([2]; read-out: hTHP-1 IC50 in 2% FBS, hTHP-1 assay containing 2% fetal bovine serum, Table B5, listed as 822)?
A: Its IC50 is 1000 to 5000 nM.

Q: How did the IC50 ([1]; read-out: hTHP-1 IC50 in 10% FBS, hTHP-1 assay containing 10% fetal bovine serum, Table B5, listed as 823) turn out when CCn1cc(F)c(S(N)(=O)=NC(=O)Nc2c(C)c(C(F)(F)F)nc3c2CC(C)C3)n1 (single isomer, unassigned) [Compound 1101c, (S, S) or (S, R)-N′-((3,6-dimethyl-2-(trifluoromethyl)-6,7-dihydro-5H-cyclopenta[b]pyridin-4-yl)carbamoyl)-1-ethyl-4-fluoro-1H-pyrazole-3-sulfonimidamide] was run?
A: The IC50 was 5000 to 30000 nM.

Q: What about the IC50 ([2]; read-out: hTHP-1 IC50 in 2% FBS, hTHP-1 assay containing 2% fetal bovine serum, Table B5, listed as 823) of the same compound?
A: Its IC50 is 5000 to 30000 nM.

Q: What does the source list for CC(C)n1cc(F)c(S(N)(=O)=NC(=O)Nc2c3c(nc4c2CCC42CC2)CCC3)n1 (single isomer, unassigned) [Compound 1102a, (R) or (S)-4-Fluoro-1-isopropyl-N′-((1′,5′,6′,7′-tetrahydro-2′H-spiro [cyclopropane-1,3′-dicyclopenta[b,e]pyridin]-8′-yl)carbamoyl)-1H-pyrazole-3-sulfonimidamide]?
A: IC50 ([1]; read-out: hTHP-1 IC50 in 10% FBS, hTHP-1 assay containing 10% fetal bovine serum, Table B5, listed as 813): 8 to 40 nM; IC50 ([2]; read-out: hTHP-1 IC50 in 2% FBS, hTHP-1 assay containing 2% fetal bovine serum, Table B5, listed as 813): 8 to 40 nM

Q: CC(C)n1cc(F)c(S(N)(=O)=NC(=O)Nc2c3c(nc4c2CCC42CC2)CCC3)n1 (single isomer, unassigned) [Compound 1102b, (S) or (R)-4-Fluoro-1-isopropyl-N′-((1′,5′,6′,7′-tetrahydro-2′H-spiro [cyclopropane-1,3′-dicyclopenta[b,e]pyridin]-8′-yl)carbamoyl)-1H-pyrazole-3-sulfonimidamide] was tested. Which IC50 ([1]; read-out: hTHP-1 IC50 in 10% FBS, hTHP-1 assay containing 10% fetal bovine serum, Table B5, listed as 814) did it give?
A: The IC50 was 1000 to 5000 nM.

Q: And the IC50 ([2]; read-out: hTHP-1 IC50 in 2% FBS, hTHP-1 assay containing 2% fetal bovine serum, Table B5, listed as 814)?
A: The IC50 was 1000 to 5000 nM.

Q: Which results are given for CC(C)n1cc(F)c(S(N)(=O)=NC(=O)Nc2c3c(nc(C4CC4)c2C2CC2)CCC3)n1 (single isomer, unassigned) [Compound 1103a, (R) or (S)-N′-((2,3-dicyclopropyl-6,7-dihydro-5H-cyclopenta[b]pyridin-4-yl)carbamoyl)-4-fluoro-1-isopropyl-1H-pyrazole-3-sulfonimidamide]?
A: IC50 ([1]; read-out: hTHP-1 IC50 in 10% FBS, hTHP-1 assay containing 10% fetal bovine serum, Table B5, listed as 815): 8 to 40 nM; IC50 ([2]; read-out: hTHP-1 IC50 in 2% FBS, hTHP-1 assay containing 2% fetal bovine serum, Table B5, listed as 815): 40 to 200 nM

Q: With CC(C)n1cc(F)c(S(N)(=O)=NC(=O)Nc2c3c(nc(C4CC4)c2C2CC2)CCC3)n1 (single isomer, unassigned) [Compound 1103b, (S) or (R)-N′-((2,3-dicyclopropyl-6,7-dihydro-5H-cyclopenta[b]pyridin-4-yl)carbamoyl)-4-fluoro-1-isopropyl-1H-pyrazole-3-sulfonimidamide] as the compound, how does the IC50 ([1]; read-out: hTHP-1 IC50 in 10% FBS, hTHP-1 assay containing 10% fetal bovine serum, Table B5, listed as 816) read?
A: Its IC50 is 1000 to 5000 nM.

Q: What about the IC50 ([2]; read-out: hTHP-1 IC50 in 2% FBS, hTHP-1 assay containing 2% fetal bovine serum, Table B5, listed as 816) of the same compound?
A: The IC50 was 5000 to 30000 nM.

Q: Which IC50 ([1]; read-out: hTHP-1 IC50 in 10% FBS, hTHP-1 assay containing 10% fetal bovine serum, Table B5, listed as 795) does the source give for CCn1cc(F)c(S(N)(=O)=NC(=O)Nc2c(C)c(C(F)(F)F)nc3c2C(C)CC3)n1 (stereo not shown) [Compound 1100, N′-((3,5-dimethyl-2-(trifluoromethyl)-6,7-dihydro-5H-cyclopenta[b]pyridin-4-yl)carbamoyl)-1-ethyl-4-fluoro-1H-pyrazole-3-sulfonimidamide] here?
A: The IC50 was 1000 to 5000 nM.

Q: What about the IC50 ([2]; read-out: hTHP-1 IC50 in 2% FBS, hTHP-1 assay containing 2% fetal bovine serum, Table B5, listed as 795) of the same compound?
A: Its IC50 is 1000 to 5000 nM.

Q: Which results are given for CCn1cc(F)c(S(N)(=O)=NC(=O)Nc2c(C)c(C(F)(F)F)nc3c2CC(C)C3)n1 (stereo not shown) [Compound 1101, N′-((3,6-dimethyl-2-(trifluoromethyl)-6,7-dihydro-5H-cyclopenta[b]pyridin-4-yl)carbamoyl)-1-ethyl-4-fluoro-1H-pyrazole-3-sulfonimidamide]?
A: IC50 ([1]; read-out: hTHP-1 IC50 in 10% FBS, hTHP-1 assay containing 10% fetal bovine serum, Table B5, listed as 796): 200 to 1000 nM; IC50 ([2]; read-out: hTHP-1 IC50 in 2% FBS, hTHP-1 assay containing 2% fetal bovine serum, Table B5, listed as 796): 8 to 40 nM

Q: CC(C)n1cc(F)c(S(N)(=O)=NC(=O)Nc2c3c(nc4c2CCC42CC2)CCC3)n1 (stereo not shown) [Compound 1102, 4-Fluoro-1-isopropyl-N′-((1′,5′,6′,7′-tetrahydro-2′H-spiro [cyclopropane-1,3′-dicyclopenta[b,e]pyridin]-8′-yl)carbamoyl)-1H-pyrazole-3-sulfonimidamide] was tested. Which IC50 [1, 3] did it give?
A: The IC50 was 8 to 40 nM.

Q: What about the IC50 [2, 4] of the same compound?
A: Its IC50 is 8 to 40 nM.

Q: What does the source list for CC(C)n1cc(F)c(S(N)(=O)=NC(=O)Nc2c3c(nc(C4CC4)c2C2CC2)CCC3)n1 (stereo not shown) [Compound 1103, N′-((2,3-dicyclopropyl-6,7-dihydro-5H-cyclopenta[b]pyridin-4-yl)carbamoyl)-4-fluoro-1-isopropyl-1H-pyrazole-3-sulfonimidamide]?
A: IC50 [1, 3]: 40 to 200 nM; IC50 [2, 4]: 40 to 200 nM
